For 19 compounds, MIC results are on record in patent publication US7250413B2, “C-25 carbamate rifamycin derivatives with activity against drug-resistant microbes” (Cumbre Pharmaceuticals Inc., priority 2004, dated 2007).

Assay in all cases: MIC, microbroth dilution
Format in all cases: cell-based
A general note: Dilution methods test growth across graded concentrations, often in twofold steps.

For experiment [1], the system named is Mycobacterium smegmatis ATCC700084. Conditions: Mycolicibacterium smegmatis, ATCC700084; rifS; Middlebrook Broth plus ADC Enrichment, 37° C.; read-out: MIC. The method, then: (§1) Representative compounds were assayed for antimicrobial activity as follows: Minimum Inhibitory Concentrations (“MICs”) were determined by the microbroth dilution method as per NCCLS guidelines (National Committee for Clinical Laboratory Standards, 2000), except that all growth incubations were conducted at 37° C. Bacterial cultures were tested in the following bacteriological media: S. aureus, S. epidermidis, and E. coli in Cation-Adjusted Mueller-Hinton Broth, S. pneumoniae in THY Broth supplemented with 1 mg/mL catalase under 5% CO2 atmosphere, S. pyogenes in THY Broth, E. faecalis in BHI Broth, H. influenzae in BHI Broth supplemented with 0.75 μL of 1 mg/mL NAD and 150 μL of 1 mg/ml hematin per 5 mL, and M smegmatis in Middlebrook Broth plus ADC Enrichment.

In experiment [2] the test system is Enterococcus faecalis ATCC29212. Conditions: rifS, BHI Broth, 37° C., read-out: MIC. The method, then: as §1
In experiment [3] the test system is Staphylococcus aureus ATCC29213. Conditions: rifS, Cation-Adjusted Mueller-Hinton Broth, 37° C., read-out: MIC. How it is done:
as §1

As usually defined, the MIC is the lowest concentration found to suppress growth.

Converted amounts (≈) assume the structure as drawn.

As for `CO[C@H]1/C=C/O[C@@]2(C)Oc3c(C)c(O)c4c(c3C2=O)C(=O)C(N2CCOCC2)=C(NC(=O)/C(C)=C\C=C\[C@H](C)[C@H](O)[C@@H](C)[C@@H](O)[C@@H](C)[C@H](OC(=O)NCCCn2ccnc2)[C@@H]1C)C4=O` [Example 11, 25-O-Desacetyl-(1-carbonyl-3-imidazol-1-yl-propylamine) 3-morpholino rifamycin S], the MIC lay in the range of 0.063 to 31 µg/mL in experiment [1], 0.25 to 62 µg/mL (≈ 0.281 to 69.7 µM) in experiment [2] and 0.002 to 1.95 µg/mL (≈ 0.00225 to 2.19 µM) in experiment [3].
The matching figures for `C=CCNC(=O)O[C@H]1[C@H](C)[C@H](O)[C@H](C)[C@@H](O)[C@@H](C)/C=C/C=C(/C)C(=O)NC2=C(N3CCOCC3)C(=O)c3c(c(O)c(C)c4c3C(=O)[C@@](C)(O/C=C/[C@H](OC)[C@H]1C)O4)C2=O` [Example 8, 25-O-Desacetyl-(carbonyl-allylamino) 3-morpholino rifamycin S]: 0.063 to 31 µg/mL, 0.25 to 62 µg/mL (≈ 0.304 to 75.4 µM) and 0.002 to 1.95 µg/mL (≈ 0.00243 to 2.37 µM).
On to `CO[C@H]1/C=C/O[C@@]2(C)Oc3c(C)c(O)c4c(c3C2=O)C(=O)C(N2CCOCC2)=C(NC(=O)/C(C)=C\C=C\[C@H](C)[C@H](O)[C@@H](C)[C@@H](O)[C@@H](C)[C@H](OC(=O)N2CCCC2)[C@@H]1C)C4=O` [Example 14, 25-O-Desacetyl-(carbonyl-1-pyrrolidino) 3-morpholino rifamycin S], for which the results for the minimal inhibitory concentration (MIC) in experiment [1], in experiment [2] and in experiment [3] were 0.063 to 31 µg/mL, 0.25 to 62 µg/mL (≈ 0.299 to 74.2 µM) and 0.002 to 1.95 µg/mL (≈ 0.00239 to 2.33 µM), respectively.
Take `CO[C@H]1/C=C/O[C@@]2(C)Oc3c(C)c(O)c4c(c3C2=O)C(=O)C(N2CCOCC2)=C(NC(=O)/C(C)=C\C=C\[C@H](C)[C@H](O)[C@@H](C)[C@@H](O)[C@@H](C)[C@H](OC(=O)NCc2ccc(Cl)cc2)[C@@H]1C)C4=O` [Example 22, 25-O-Desacetyl-(carbonyl-4-chlorobenzyl) 3-morpholino rifamycin S]: the MIC in experiment [1] is 0.063 to 31 µg/mL; in experiment [2], 0.25 to 62 µg/mL (≈ 0.276 to 68.4 µM); in experiment [3], 0.002 to 1.95 µg/mL (≈ 0.00221 to 2.15 µM).
The matching figures for `CO[C@H]1/C=C/O[C@@]2(C)Oc3c(C)c(O)c4c(c3C2=O)C(=O)C(N2CCOCC2)=C(NC(=O)/C(C)=C\C=C\[C@H](C)[C@H](O)[C@@H](C)[C@@H](O)[C@@H](C)[C@H](OC(=O)N2CCN(c3cc5c(cc3F)c(=O)c(C(=O)O)cn5C3CC3)CC2)[C@@H]1C)C4=O` [Example 16, 25-O-Desacetyl-(4-carbonyl-1-cyclopropyl-6-fluoro-4-oxo-7-piperazin-1-yl-1,4-dihydro-quinoline-3-carboxylic acid) 3-morpholino rifamycin S]: 0.063 to 31 µg/mL, 0.25 to 62 µg/mL (≈ 0.228 to 56.6 µM) and 0.002 to 1.95 µg/mL (≈ 0.00182 to 1.78 µM).
For `CO[C@H]1/C=C/O[C@@]2(C)Oc3c(C)c(O)c4c(c3C2=O)C(=O)C(N2CCOCC2)=C(NC(=O)/C(C)=C\C=C\[C@H](C)[C@H](O)[C@@H](C)[C@@H](O)[C@@H](C)[C@H](OC(=O)N2CCN(CCNc3ccc(C(=NO)Nc5ccccc5)cc3C(F)(F)F)CC2)[C@@H]1C)C4=O` [Example 49, 25-O-Desacetyl-(carbonyl-N-hydroxy-N′-phenyl-4-(2-piperazin-1-yl-ethylamino)-3-trifluoromethyl-benzamidine) 3-morpholino rifamycin S], the MIC in experiment [1] fell in the range of 0.063 to 31 µg/mL; in experiment [2], 0.25 to 62 µg/mL (≈ 0.213 to 52.9 µM); in experiment [3], 0.002 to 1.95 µg/mL (≈ 0.00171 to 1.66 µM).
For `CO[C@H]1/C=C/O[C@@]2(C)Oc3c(C)c(O)c4c(c3C2=O)C(=O)C(N2CCOCC2)=C(NC(=O)/C(C)=C\C=C\[C@H](C)[C@H](O)[C@@H](C)[C@@H](O)[C@@H](C)[C@H](OC(=O)NCC#Cc2cnc3ccccc3c2)[C@@H]1C)C4=O` [Example 45, 25-O-Desacetyl-(carbonyl-3-quinolin-3-yl-prop-2-ynylamine) 3-morpholino rifamycin S], the results for the minimum inhibitory concentration (MIC) in experiment [1], in experiment [2] and in experiment [3] were 0.063 to 31 µg/mL, 0.25 to 62 µg/mL (≈ 0.264 to 65.5 µM) and 0.002 to 1.95 µg/mL (≈ 0.00211 to 2.06 µM), respectively.
The like results for `CO[C@H]1/C=C/O[C@@]2(C)Oc3c(C)c(O)c4c(c3C2=O)C(=O)C(N2CCOCC2)=C(NC(=O)/C(C)=C\C=C\[C@H](C)[C@H](O)[C@@H](C)[C@@H](O)[C@@H](C)[C@H](OC(=O)NCCO)[C@@H]1C)C4=O` [Example 20, 25-O-Desacetyl-(1-carbonyl-2-aminoethanol) 3-morpholino rifamycin S] were, in that order, 0.063 to 31 µg/mL, 0.25 to 62 µg/mL (≈ 0.303 to 75.1 µM) and 0.002 to 1.95 µg/mL (≈ 0.00242 to 2.36 µM).
The like results for `CO[C@H]1/C=C/O[C@@]2(C)Oc3c(C)c(O)c4c(c3C2=O)C(=O)C(N2CCOCC2)=C(NC(=O)/C(C)=C\C=C\[C@H](C)[C@H](O)[C@@H](C)[C@@H](O)[C@@H](C)[C@H](OC(=O)NC2CCN(Cc3ccccc3)CC2)[C@@H]1C)C4=O` [Example 33, 25-O-Desacetyl-(carbonyl-1-benzyl-piperidin-4-ylamine) 3-morpholino rifamycin S] were, in that order, 0.063 to 31 µg/mL, 0.25 to 62 µg/mL (≈ 0.262 to 64.9 µM) and 0.002 to 1.95 µg/mL (≈ 0.00209 to 2.04 µM).
The matching figures for `CO[C@H]1/C=C/O[C@@]2(C)Oc3c(C)c(O)c4c(c3C2=O)C(=O)C(N2CCOCC2)=C(NC(=O)/C(C)=C\C=C\[C@H](C)[C@H](O)[C@@H](C)[C@@H](O)[C@@H](C)[C@H](OC(=O)NCCN2CCN(C)CC2)[C@@H]1C)C4=O` [Example 9, 25-O-Desacetyl-(1-carbonyl-2-(4-methyl-piperazin-1-yl)-ethylamine) 3-morpholino rifamycin S]: 0.063 to 31 µg/mL, 0.25 to 62 µg/mL (≈ 0.275 to 68.3 µM) and 0.002 to 1.95 µg/mL (≈ 0.0022 to 2.15 µM).
As to `CO[C@H]1/C=C/O[C@@]2(C)Oc3c(C)c(O)c4c(c3C2=O)C(=O)C(N2CCOCC2)=C(NC(=O)/C(C)=C\C=C\[C@H](C)[C@H](O)[C@@H](C)[C@@H](O)[C@@H](C)[C@H](OC(=O)NCCN(C)C)[C@@H]1C)C4=O` [Example 30, 25-O-Desacetyl-(carbonyl-N,N-dimethylethylenediamine) 3-morpholino rifamycin S], the MIC was in the range of 0.063 to 31 µg/mL in experiment [1], 0.25 to 62 µg/mL (≈ 0.293 to 72.7 µM) in experiment [2] and 0.002 to 1.95 µg/mL (≈ 0.00234 to 2.29 µM) in experiment [3].
Consider `CO[C@H]1/C=C/O[C@@]2(C)Oc3c(C)c(O)c4c(c3C2=O)C(=O)C(N2CCOCC2)=C(NC(=O)/C(C)=C\C=C\[C@H](C)[C@H](O)[C@@H](C)[C@@H](O)[C@@H](C)[C@H](OC(=O)NCc2ccccc2)[C@@H]1C)C4=O` [Example 15, 25-O-Desacetyl (carbonyl-benzyl) 3-morpholino rifamycin S], for which the MIC fell in the range of 0.063 to 31 µg/mL in experiment [1], 0.25 to 62 µg/mL (≈ 0.287 to 71.1 µM) in experiment [2] and 0.002 to 1.95 µg/mL (≈ 0.00229 to 2.24 µM) in experiment [3].
The like results for `CO[C@H]1/C=C/O[C@@]2(C)Oc3c(C)c(O)c4c(c3/C2=N/O)C(=O)C(N2CCOCC2)=C(NC(=O)/C(C)=C\C=C\[C@H](C)[C@H](O)[C@@H](C)[C@@H](O)[C@@H](C)[C@H](OC(=O)NCCN(C)C)[C@@H]1C)C4=O` [Example 69] were, in that order, 0.063 to 31 µg/mL, 0.25 to 62 µg/mL (≈ 0.288 to 71.4 µM) and 0.002 to 1.95 µg/mL (≈ 0.0023 to 2.25 µM).
The like results for `COc1c(N2CCC(NC3CCN(C(=O)O[C@H]4[C@H](C)[C@H](O)[C@H](C)[C@@H](O)[C@@H](C)/C=C/C=C(/C)C(=O)NC5=C(N6CCOCC6)C(=O)c6c(c(O)c(C)c7c6C(=O)[C@@](C)(O/C=C/[C@H](OC)[C@H]4C)O7)C5=O)CC3)C2)c(F)cc2c(=O)c(C(=O)O)cn(C3CC3)c12` (stereo partly drawn) [Example 56] were, in that order, 0.063 to 31 µg/mL, 0.25 to 62 µg/mL (≈ 0.207 to 51.3 µM) and 0.002 to 1.95 µg/mL (≈ 0.00165 to 1.61 µM).
The matching figures for `CO[C@H]1/C=C/O[C@@]2(C)Oc3c(C)c(O)c4c(c3C2=O)C(=O)C(N2CCOCC2)=C(NC(=O)/C(C)=C\C=C\[C@H](C)[C@H](O)[C@@H](C)[C@@H](O)[C@@H](C)[C@H](OC(=O)NCC#Cc2cccc(CO)c2)[C@@H]1C)C4=O` [Example 44, 25-O-Desacetyl-(carbonyl-[3-(3-amino-prop-1-ynyl)-phenyl]-methanol) 3-morpholino rifamycin S]: 0.063 to 31 µg/mL, 0.25 to 62 µg/mL (≈ 0.27 to 67 µM) and 0.002 to 1.95 µg/mL (≈ 0.00216 to 2.11 µM).
For the compound `Cc1cc2cc(NC(=O)c3ccc(N4CCNCC4)c(C(F)(F)F)c3)ccc2[nH]1` [Example 50, N-(2-Methyl-1H-indol-5-yl)-4-piperazin-1-yl-3-trifluoromethyl-benzamide], the figures for the minimal inhibitory concentration (MIC) in experiment [1], in experiment [2] and in experiment [3] were 0.063 to 31 µg/mL, 0.25 to 62 µg/mL (≈ 0.621 to 154 µM) and 0.002 to 1.95 µg/mL (≈ 0.00497 to 4.85 µM), respectively.
With `COc1c(N2CCN(C(=O)CNC(=O)O[C@H]3[C@H](C)[C@H](O)[C@H](C)[C@@H](O)[C@@H](C)/C=C/C=C(/C)C(=O)NC4=C(N5CCOCC5)C(=O)c5c(c(O)c(C)c6c5C(=O)[C@@](C)(O/C=C/[C@H](OC)[C@H]3C)O6)C4=O)CC2)c(F)cc2c(=O)c(C(=O)O)cn(C3CC3)c12` [Example 64], the MIC in experiment [1] lay in the range of 0.063 to 31 µg/mL; in experiment [2], 0.25 to 62 µg/mL (≈ 0.211 to 52.4 µM); in experiment [3], 0.002 to 1.95 µg/mL (≈ 0.00169 to 1.65 µM).
The like results for `CNC(=O)O[C@H]1[C@H](C)[C@H](O)[C@H](C)[C@@H](O)[C@@H](C)/C=C/C=C(/C)C(=O)NC2=C(N3CCOCC3)C(=O)c3c(c(O)c(C)c4c3C(=O)[C@@](C)(O/C=C/[C@H](OC)[C@H]1C)O4)C2=O` [Example 21, 25-O-Desacetyl-(carbonyl-methylamino) 3-morpholino rifamycin S] were, in that order, 0.063 to 31 µg/mL, 0.25 to 62 µg/mL (≈ 0.314 to 77.9 µM) and 0.002 to 1.95 µg/mL (≈ 0.00251 to 2.45 µM).
The like results for `CO[C@H]1/C=C/O[C@@]2(C)Oc3c(C)c(O)c4c(c3C2=O)C(=O)C(N2CCOCC2)=C(NC(=O)/C(C)=C\C=C\[C@H](C)[C@H](O)[C@@H](C)[C@@H](O)[C@@H](C)[C@H](OC(=O)NCC(C)C)[C@@H]1C)C4=O` [Example 7, 25-O-Desacetyl-(1-carbonyl-isobutylamino) 3-morpholino rifamycin S] were, in that order, 0.063 to 31 µg/mL, 0.25 to 62 µg/mL (≈ 0.298 to 74 µM) and 0.002 to 1.95 µg/mL (≈ 0.00239 to 2.33 µM).
